# From paper PMC10571957, “αV-Integrin-Dependent Inhibition of Glioblastoma Cell Migration, Invasion and Vasculogenic Mimicry by the uPAcyclin Decapeptide” (Cancers, 2023)
# Experiments:
# C6 cells = assay: Vasculogenic mimicry (tube formation on Geltrex), C6; format: cell-based, rat; conditions: C6, 16 h
# Method: The tube formation assay was performed in 96-well plates pre-coated with 50 µL/well of Geltrex^TM (Thermofisher, Scientific, Waltham, MA, USA), and polymerized for 30 min at 37 °C. Briefly, 3 × 10^4 U87-MG, 1.5 × 10^4 U251, and 1 × 10^4 C6 cells/100µL/well were plated onto Geltrex^TM and monitored at 37 °C for the indicated times. The specific effectors were included at time 0. The formation of vascular-like structures by Geltrex^TM-plated U87-MG and U251-MG cells was monitored for 24 h, whereas C6 cells were tested for 16 h. The evaluation of the branching point number, defined as the intersection of at least 3 tubes [24], was performed using the Inverted Microscope DMI Leica 6000 for the U87-MG and U251-MG cells and the Inverted Microscope Axiovert 25 for the C6 cells. At the indicated times, the number of “branching points” was assessed in 4/5 random fields using the ImageJ 1.52a Software.
# Figure 7 Vascular mimicry formation by C6 rat cells and inhibition by uPAcyclin. […] (B) After 16 h, the number of branching points was evaluated as described in the legend to Figure 5 and reported in the relative histogram (*** p-value < 0.001).
# [1] = system: U138-MG cells (αV integrin); assay: FITC-uPAcyclin receptor binding/competition, U138-MG; parameters: species or system human; conditions: unlabeled uPAcyclin vs FITC-uPAcyclin, 4 °C
# Method: The U87-MG, U251-MG, and U138-MG cell lines were harvested and acid-treated, as described. Then, 2 × 10^6 cells/sample were exposed for 30 min at 4 °C to uPAcyclin or S-uPAcyclin at the indicated concentrations, or with the following antibodies: VNR147 monoclonal anti-αV integrin (Chemicon Int. Inc., Temecula, CA, USA), polyclonal anti-αV (Millipore, Burlington, MA, USA), monoclonal anti-α2 (Chemicon Int. Inc., Temecula, CA, USA), polyclonal anti-actin (Sigma-Aldrich, St. Louis, MO, USA), monoclonal anti-GAPDH (Abcam, Cambridge, UK), and purified vitronectin (VN, Corning, Glendale, AZ, USA). The cells were subsequently incubated with 50 nM FITC-uPAcyclin for 2 h at 4 °C, as described. At the end of incubation, the cells were washed and the cell surface-associated fluorescence was determined using a fluorimeter (VICTOR^TM X3-PerkinElmer, Waltham, MA, USA). All binding assays were performed three times, with duplicate samples, and analyzed as described in Section 2.11.
# Figure 2 αV expression of U87-MG, U251-MG, and U138-MG GBM cells and specific binding of FITC-uPAcyclin. […] At the end of the incubation, the unbound material was washed and cell-associated FITC-uPAcyclin was quantitated by a fluorimeter. The net value of cell-surface-associated fluorescence, corresponding to the specific binding, is shown. […]
substance,measurement,setting,value
Ac-K^1P[ESPPEELK^10]-NH2 (sidechain bridge or staple) [uPAcyclin],inhibition of branching point number,C6 cells; 10 pM,40%
same,inhibition of branching point number,C6 cells; 100 nM,60%
same,Kdapp,[1],low nanomolar range
